Reference: PubChem BioAssay AID540265 (Sanford-Burnham Center for Chemical Genomics, 2011)
Calls of active or inactive are those of the source. No rule for the calls is given here.

Molecular target: Intestinal-type alkaline phosphatase (Homo sapiens) (UniProt P09923)
Assay: human IAP enzyme inhibitors, SAR follow-up, biochemical, luminescence, set 2 (AID 540265)
Settings: purified human IAP, luminescent substrate read-out

Sequence of Intestinal-type alkaline phosphatase (Homo sapiens) (P09923 whole entry, looked up): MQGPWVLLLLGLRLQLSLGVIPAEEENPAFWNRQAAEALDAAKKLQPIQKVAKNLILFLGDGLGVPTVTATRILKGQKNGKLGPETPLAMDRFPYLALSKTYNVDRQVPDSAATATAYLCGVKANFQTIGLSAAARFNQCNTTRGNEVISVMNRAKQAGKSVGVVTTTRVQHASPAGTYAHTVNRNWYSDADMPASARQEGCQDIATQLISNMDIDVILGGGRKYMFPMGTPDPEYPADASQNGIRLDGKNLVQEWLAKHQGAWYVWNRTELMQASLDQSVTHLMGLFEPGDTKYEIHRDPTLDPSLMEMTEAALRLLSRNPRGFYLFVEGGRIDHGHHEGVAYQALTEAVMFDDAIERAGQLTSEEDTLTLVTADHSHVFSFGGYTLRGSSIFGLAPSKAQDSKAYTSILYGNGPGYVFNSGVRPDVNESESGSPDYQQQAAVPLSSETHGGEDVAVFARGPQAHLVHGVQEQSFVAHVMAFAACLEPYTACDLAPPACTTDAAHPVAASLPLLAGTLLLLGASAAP

SMILES	IC50
O=C(CNS(=O)(=O)c1ccc2[nH]c(=O)oc2c1)NCc1ccc2c(c1)OCO2	> 100 µM (inactive)
Cc1ccc(C)c(NC(=O)CCNS(=O)(=O)c2ccc3[nH]c(=O)oc3c2)c1	> 100 µM (inactive)
N#Cc1ccc(CNC(=O)CCNS(=O)(=O)c2ccc3[nH]c(=O)oc3c2)cc1	> 100 µM (inactive)

Second part, the compound after the results:

IC50	SMILES
> 100 µM (inactive)	O=C(CNS(=O)(=O)c1ccc2[nH]c(=O)oc2c1)Nc1ccc2c(c1)OCO2
> 100 µM (inactive)	COc1ccc(NC(=O)CNS(=O)(=O)c2ccc3[nH]c(=O)oc3c2)cc1OC
